How the values were obtained:
Format in all cases: cell-based
HepG2 cells = assay: Palmitate-induced apoptosis, Caspase-Glo 3/7 activity in HepG2 cells; conditions: 24 h
Protocol: NAFLD is characterized by excessive hepatic fat accumulation which leads to cell death, including apoptosis, of liver cells in the progression of the disease. HepG2s (liver cell line) were seeded in a 96-well plate and cultured for 48 h before inducing cell death/apoptosis with 100 μM, 150 μM, 200 μM, 250 μM, 300 μM BSA-coupled palmitic acid (PA). A concentration-response curve to palmitate for apoptosis expressed as percentage of control of Caspase 3/7 (apoptosis marker) activity of HepG2 cells treated for 24 h were determined. As a positive control for apoptosis 2 μM staurosporine was used. Caspase 3/7 activity after 24 h was measured by a Caspase-Glo® 3/7 Assay (Promega) as described in the manufacturer's protocol. Luminescence was recorded after an incubation step of 35 min using the plate-reader luminometer of a Cytation™ 5.
HepG2 cells were treated with palmitate acid (200 μM) in the presence or absence of HK4 (100 nM) and GABA (100 μM), as well as with the vehicle BSA and the positive control for apoptosis staurosporine (STP) (2 μM) for 24 h. As a negative control an apoptosis inhibitor (API) (100 μM) was used. As described in Example I Caspase 3/7 activity after 24 h was measured by a Caspase-Glo® 3/7 Assay (Promega).

[1] = system: primary human hepatocytes; assay: Palmitate-induced apoptosis, caspase 3/7 activity in human primary hepatocytes; conditions: 24 h
Source text: Human primary hepatocytes were purchased from Thermo Fisher and cultured according to the manufacturer's instructions. […] To achieve finale palmitate concentrations, sodium palmitate was complexed with a preheated BSA (Carl Roth, Karlsruhe, Germany) solution at a 2.6:1 molar ratio.

Caspase 7 = assay: Human apoptosis array, Caspase 7 protein in lysates of treated HepG2 cells; conditions: HepG2, HK4 100 nM and PA
Protocol: Markers of apoptosis were analysed in the cell lysates of treated HepG2s with a human apoptosis array (RayBiotech, Peachtree Corners, GA) according to manufacturer's protocol. The total protein content was measured using the Pierce BCA protein assay kit (Thermo Fisher Scientific). Membranes were incubated with 250 μg of total protein from untreated and treated HepG2 cells. The spot intensities were quantified after an exposure of 500 ms using the ChemStudio analysis software (Analytik Jena) and normalized to the untreated control after background subtraction with the design spots for it.

NF-κB subunit p65 = assay: Western blot, phospho-NF-κB p65 to NF-κB p65 ratio in HepG2 cells
Protocol: Beside excessive hepatic fat accumulation, inflammation is one of the critical steps in the progression of NAFL to NASH. As an indicator of inflammation, phosphorylation of the transcription factor NF-κB was monitored by a phospho-p65 specific antibody using protein extraction and western blotting.
HepG2 cells were homogenized in lysis buffer including a protease and phosphatase inhibitor cocktail. Cell lysates were centrifuged at 12.000 rpm for 15 min. The protein concentrations were determined using the Pierce BCA protein assay kit (Thermo Fisher Scientific). 20 μg of Proteins were resolved on 4-20% gradient gels (Bio-Rad, Hercules, CA) and transferred onto an Immun-Blot PVDF membrane (Bio-Rad). Membranes were blocked with 5% non-fat dry milk or bovine serum albumin in TBPS containing 0.1% Tween for 1 h at RT, followed by an overnight incubation with the respective primary antibody: Phospho-NF-κB p65 and NF-κB p65 (Cell Signaling Technology, Frankfurt, Germany). Membranes were incubated with the corresponding HRP-coupled secondary antibody. Protein bands were visualized using an ECL Western blot detection substrate (Bio-Rad). The band intensities were quantified with the ChemStudio analysis software (Analytik Jena, Jena, Germany) and normalized by GAPDH band intensity.

## NCCCC(=O)O [GABA, gamma-Aminobutyric acid]
HepG2 cells; HepG2, GABA 100 μM + palmitate 200 μM
  PA-induced apoptosis rate (caspase 3/7 activity), with GABA: 764.9±16.72%

## CCCCCCCCCCCCCCCC(=O)O [Palmitate acid, palmitic acid, reference compound]
HepG2 cells; HepG2, palmitate 200 μM alone
  Caspase 3/7 activity provoked by palmitate 200 μM: 1130±103.3%
HepG2 cells; HepG2, palmitate acid 100 μM alone
  Caspase 3/7 activity (apoptosis), percentage of control: 342.2±12.25%
[1]; palmitate 100 μM alone
  Caspase 3/7 activity provoked by palmitate 100 μM: 147.3±31.3%
[1]; palmitate 200 μM alone
  Caspase 3/7 activity provoked by palmitate 200 μM: 155.1±3.78%

## Cc1cc(NC(=S)/C(C#N)=C(\O)C2CC2)ccc1C#N [HK4, 2-Cyano-N-(4-cyano-3-methyl-phenyl)-3-cyclopropyl-3-hydroxy-thioacrylamide]
HepG2 cells; HepG2, HK4 100 nM + palmitate 200 μM
  Caspase 3/7 activity provoked by palmitate 200 μM, with HK4: 47.32±19.56%
HepG2 cells; HepG2, HK4 alone (100 nM)
  Caspase 3/7 activity compared to untreated control cells: 21.60±2.52%
Caspase 7
  Caspase 7 protein expression vs. PA alone: 60.91±4.18%
[1]; HK4 (10 μM) 1 h prior to palmitate 100 μM
  Caspase 3/7 activity provoked by palmitate 100 μM, HK4 pre-treatment: 58.73±16.86%
[1]; HK4 (10 μM) 1 h prior to palmitate 200 μM
  Caspase 3/7 activity provoked by palmitate 200 μM, HK4 pre-treatment: 57.13±21.47%
NF-κB subunit p65; HepG2, HK4 alone
  Effect on phosphorylation of the NF-κB subunit p65 compared to untreated cells: no effect
NF-κB subunit p65; HepG2, pre-incubation with HK4 then palmitate acid, PA = 100%
  Ratio of phosphorylated NF-κB to non-phosphorylated NF-κB subunit p65, % of PA: 55.24±10.64%

Source: patent publication US20240423946A1, “COMPOUND FOR TREATING NON-ALCOHOLIC FATTY LIVER DISEASE AND RELATED DISEASES” (Algiax Pharmaceuticals GmbH, priority 2021, published 2024)
